# In patent US9872875B2, “Component and method for treating viral disease” (Institut Pasteur of Shanghai, Chinese Academy of Sciences, priority 2012, dated 2018):
# Read-outs that look alike come from different tables or passages of the source.
# How the values were obtained:
# [1] = test system: EV71; test: Inhibition of EV71 replication in RD cells at 0.1, 1, 10 and 100 μM (CPE, crystal violet); type: cell-based, Enterovirus 71; design: key to Inhibition of EV71 replication: −: no activity
# Procedure: Inhibitory effect of each P2X receptor antagonists and agonists on EV71 replication was measured at 0.1, 1, 10, and 100 μM. Specific procedures refer to “1” of Example 1. after infection, however, cells need to be incubated for 3˜4 days, stained with crystal violet, and observed under optical microscope to determine whether or not CPE (cytopathic effect) was present. In addition, the effect of compounds at each concentration on cytotoxicity to RD cells was determined. After culturing RD cells in various concentrations of compounds for 3˜4 days, stained with crystal violet, and observed under optical microscope to observe whether or not cell layer was damaged. Compounds capable of protecting cells from infection without damage of healthy cell layer can inhibit EV71 replication in RD cells.
# [2] = test system: EV71; test: Effects of other antagonists and agonists on EV71 (Table 9); type: cell-based, Enterovirus 71; design: key: “NO” indicates there is negative
# [3] = target: T1, P2X4 receptor (Homo sapiens, UniProt Q99571); conditions: cited from earlier work
# T1 sequence (Q99571 1-388): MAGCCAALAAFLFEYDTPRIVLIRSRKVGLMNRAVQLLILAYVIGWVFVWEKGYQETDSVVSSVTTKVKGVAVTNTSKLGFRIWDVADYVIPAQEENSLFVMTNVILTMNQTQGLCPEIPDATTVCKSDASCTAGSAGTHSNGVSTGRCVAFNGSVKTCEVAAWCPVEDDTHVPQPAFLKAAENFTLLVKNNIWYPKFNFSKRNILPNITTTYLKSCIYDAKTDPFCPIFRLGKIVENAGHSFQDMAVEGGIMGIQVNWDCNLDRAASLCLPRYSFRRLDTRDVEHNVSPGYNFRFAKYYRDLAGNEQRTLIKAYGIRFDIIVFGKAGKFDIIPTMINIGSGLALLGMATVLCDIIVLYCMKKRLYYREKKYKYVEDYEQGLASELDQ
# [4] = target: T2, P2X1 receptor (Homo sapiens, UniProt P51575); design: key: −: no activity; +: activating concentration >10 μM; ++: activating concentration 1~10 μM; +++: activating concentration <1 μM; conditions: cited from earlier work
# T2 sequence (P51575 1-399): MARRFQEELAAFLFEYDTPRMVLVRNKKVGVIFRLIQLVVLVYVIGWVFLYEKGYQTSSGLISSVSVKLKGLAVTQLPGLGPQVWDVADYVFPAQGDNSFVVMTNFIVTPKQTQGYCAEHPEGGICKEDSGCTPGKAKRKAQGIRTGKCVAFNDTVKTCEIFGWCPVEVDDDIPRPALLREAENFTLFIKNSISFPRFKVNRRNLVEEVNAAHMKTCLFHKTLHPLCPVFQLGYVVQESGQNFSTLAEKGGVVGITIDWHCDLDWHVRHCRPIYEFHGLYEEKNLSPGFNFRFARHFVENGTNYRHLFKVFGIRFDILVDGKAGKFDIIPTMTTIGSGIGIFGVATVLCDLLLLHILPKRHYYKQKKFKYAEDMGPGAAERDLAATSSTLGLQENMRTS
# [5] = target: T3, P2X2 receptor (Homo sapiens, UniProt Q9UBL9); design: key: −: no activity; +: activating concentration >10 μM; ++: activating concentration 1~10 μM; +++: activating concentration <1 μM; conditions: cited from earlier work
# T3 sequence (Q9UBL9 1-471): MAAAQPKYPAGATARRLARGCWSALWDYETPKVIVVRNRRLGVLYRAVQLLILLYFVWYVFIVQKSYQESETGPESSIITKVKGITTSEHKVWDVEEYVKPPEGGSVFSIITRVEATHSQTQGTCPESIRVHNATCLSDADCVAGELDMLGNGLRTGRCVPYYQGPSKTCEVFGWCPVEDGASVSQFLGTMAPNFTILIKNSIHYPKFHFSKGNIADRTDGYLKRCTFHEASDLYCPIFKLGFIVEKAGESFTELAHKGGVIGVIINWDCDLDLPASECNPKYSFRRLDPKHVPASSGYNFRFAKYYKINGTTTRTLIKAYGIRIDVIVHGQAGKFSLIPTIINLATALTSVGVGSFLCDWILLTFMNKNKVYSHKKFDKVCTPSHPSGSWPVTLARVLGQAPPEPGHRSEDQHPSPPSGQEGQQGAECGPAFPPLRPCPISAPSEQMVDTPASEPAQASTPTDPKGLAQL
# [6] = target: T4, P2X3 receptor (Homo sapiens, UniProt P56373); conditions: cited from earlier work
# T4 sequence (P56373 1-397): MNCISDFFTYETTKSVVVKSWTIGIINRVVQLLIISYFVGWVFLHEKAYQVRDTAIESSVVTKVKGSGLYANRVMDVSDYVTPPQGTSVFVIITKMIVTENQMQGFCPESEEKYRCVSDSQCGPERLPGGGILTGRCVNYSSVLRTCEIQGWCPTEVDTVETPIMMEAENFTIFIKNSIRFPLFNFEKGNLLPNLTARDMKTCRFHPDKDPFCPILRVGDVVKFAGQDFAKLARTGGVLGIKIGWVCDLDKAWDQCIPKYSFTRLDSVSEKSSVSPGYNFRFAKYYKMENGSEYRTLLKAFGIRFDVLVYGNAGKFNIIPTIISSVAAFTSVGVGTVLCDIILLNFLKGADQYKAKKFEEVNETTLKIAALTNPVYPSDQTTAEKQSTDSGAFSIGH
# [7] = target: T5, P2X7 receptor (Homo sapiens, UniProt Q99572); conditions: cited from earlier work
# T5 sequence (Q99572 1-595): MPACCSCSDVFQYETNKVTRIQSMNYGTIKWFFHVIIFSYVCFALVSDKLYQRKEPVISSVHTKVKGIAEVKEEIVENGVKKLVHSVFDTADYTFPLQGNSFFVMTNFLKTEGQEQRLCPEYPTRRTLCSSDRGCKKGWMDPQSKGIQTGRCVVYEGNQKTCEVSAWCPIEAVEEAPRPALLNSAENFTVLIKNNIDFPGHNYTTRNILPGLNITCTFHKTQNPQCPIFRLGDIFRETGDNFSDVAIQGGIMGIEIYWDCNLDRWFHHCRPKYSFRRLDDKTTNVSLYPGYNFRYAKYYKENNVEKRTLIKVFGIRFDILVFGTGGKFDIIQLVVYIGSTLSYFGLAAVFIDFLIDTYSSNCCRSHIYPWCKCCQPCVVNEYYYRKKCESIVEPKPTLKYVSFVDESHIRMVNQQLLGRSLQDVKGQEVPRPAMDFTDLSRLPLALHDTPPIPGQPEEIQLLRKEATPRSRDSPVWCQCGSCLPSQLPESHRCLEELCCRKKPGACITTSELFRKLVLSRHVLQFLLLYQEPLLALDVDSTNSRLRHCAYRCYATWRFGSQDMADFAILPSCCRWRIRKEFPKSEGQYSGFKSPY
# [8] = target: P2X5 receptor (Homo sapiens, UniProt Q93086); conditions: cited from earlier work
# Sequence of P2X5 receptor (Q93086 whole entry): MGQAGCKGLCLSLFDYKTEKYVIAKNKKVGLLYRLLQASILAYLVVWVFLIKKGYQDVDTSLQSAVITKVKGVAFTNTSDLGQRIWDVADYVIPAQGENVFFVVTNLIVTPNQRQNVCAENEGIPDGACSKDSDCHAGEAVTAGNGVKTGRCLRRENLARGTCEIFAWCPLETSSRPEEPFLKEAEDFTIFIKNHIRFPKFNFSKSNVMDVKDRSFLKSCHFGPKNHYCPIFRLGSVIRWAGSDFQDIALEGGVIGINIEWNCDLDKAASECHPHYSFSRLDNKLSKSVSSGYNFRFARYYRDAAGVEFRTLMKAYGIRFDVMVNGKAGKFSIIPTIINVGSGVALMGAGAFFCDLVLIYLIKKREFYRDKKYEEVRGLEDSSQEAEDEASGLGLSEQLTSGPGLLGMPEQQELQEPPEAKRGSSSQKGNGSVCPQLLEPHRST
# [9] = test system: EV71 FY-23; test: EV71 infection of adult rhesus monkeys: blood viral load and body temperature; type: in vivo, rhesus monkey (Macaca); conditions: 50 mg/kg suramin i.v.
# Source text: 10 adult rhesus monkeys, which were detected negative for EV71 antibody (rhesus monkey (Macaca), Source: Institute of Medical Biology, Chinese Academy of Medical Sciences, Experimental animal use license number: SYXK (Yunnan) 2010-0009, Certification unit: Yunnan Provincial Science and Technology Agency), were randomly divided into two groups, namely: five in control group (aged about 4 years old, weighing about 5.3 kg, injected with physiological saline), 5 in treatment group (aged about 4.6 years old, weighs about 5.44 kg, injected with 50 mg/kg suramin). Multiple intravenous injections of suramin (50 mg/kg) were used. […] Specific experimental procedure is as follows:
# Then, drug was administered intravenously at a dose (50 mg/kg suramin or physiological saline).
# Intravenous viral challenge was performed with 4.5 lgCCID50 EV71 FY-23.
# Whole blood RNA extraction: obtained 0.2 ml blood, added 0.8 ml TRNzol-A^+, after mixing, placed the well at room temperature for 10 min; added 0.2 ml chloroform, tightened cover lid, vigorously shaking for 15 sec, placed at room temperature for 5 min, centrifuged at 12500 rpm, 4° C., 20 min, 0.4 ml of aqueous phase was transferred to another fresh tube, equal volume of isopropanol was added, mixed, placed at room temperature for 30 min; centrifuged at 12500 rpm, 4° C., 20 min, supernatant was discarded, 1 ml of 75% ethanol was added to wash precipitates, centrifuged at 12500 rpm, 4° C., 30 min. Supernatant discarded, placed at room temperature for 30 min, RNA dried, 20 μl RNase-free ddH2O added, and RNA fully dissolved. Viral load was determined by measurement method as follows:
# 1) Standard dilutions: obtaining standards (performed according to TaKaRa MiniBEST Viral RNA/DNA extraction Kit Ver 3.0 instructions), 10 μl standards were obtained, 10-fold serial dilutions 10^6, 10^5, 10^4, 10^3, 10^2, 10^1, 10^0.
# 2) Primer sequences (Taqman probe method):
# 3) Preparing RT-PCR reaction solution (reaction solutions were prepared on ice):
# 4) Performing Real Time One Step RT-PCR.
# [10] = target: P2X2/3 (Homo sapiens, UniProt P56373+Q9UBL9); conditions: Table 9, antagonists; cited from earlier work
Molecule,"Inhibition of EV71 replication ([1]; Table 8, agonists)",EV71 Log10 reduction [2],"P2X receptors 4 ([3]; Table 8, agonists)","P2X receptors 1 ([4]; Table 8, agonists)","P2X receptors 2 ([5]; Table 8, agonists)","P2X receptors 3 ([6]; Table 8, agonists)","P2X receptors 5 ([8]; Table 8, agonists)","P2X receptors 5 ([8]; Table 9, agonists)",other results
Ivermectine,−,NO,++ (++: activating concentration 1~10 μM),,,,,,"P2X receptors 4 ([3]; Table 9, modulator, no key printed for this class): ✓ ✓ ✓"
"O=C(Nc1ccc(C(=O)Nc2ccc(C(=O)Nc3ccc(S(=O)(=O)O)c4cc(S(=O)(=O)O)cc(S(=O)(=O)O)c34)cc2)cc1)Nc1ccc(C(=O)Nc2ccc(C(=O)Nc3ccc(S(=O)(=O)O)c4cc(S(=O)(=O)O)cc(S(=O)(=O)O)c34)cc2)cc1 [NF279, 8,8′-(carbonylbis(imino-4,1-phenylenecarbonylimino-4,1-phenylenecarbonylimino))bis(1,3,5-naphthalenetrisulfonic acid)]",,,,,,,,,"inhibition of EV71 replication (statement in words) [1]: can also inhibit EV71 replication; Inhibition of EV71 replication ([1]; Table 8, antagonists): + (+: inhibitory concentration >300 nM); P2X receptors 1 ([4]; Table 8, antagonists): +++ (+++: inhibitory concentration <10 nM); P2X receptors 2 ([5]; Table 8, antagonists): + (+: inhibitory concentration >300 nM); P2X receptors 3 ([6]; Table 8, antagonists): + (+: inhibitory concentration >300 nM); P2X receptors 4 ([3]; Table 8, antagonists): −; P2X receptors 7 ([7]; Table 8, antagonists): + (+: inhibitory concentration >300 nM)"
bzATP,−,NO,+++ (+++: activating concentration <1 μM),+++ (+++: activating concentration <1 μM),++ (++: activating concentration 1~10 μM),+ (+: activating concentration >10 μM),++ (++: activating concentration 1~10 μM),✓ ✓ (✓ ✓ activating concentration 1-10 μM),"P2X receptors 1 ([4]; Table 9, agonists): ✓ ✓ ✓ (✓ ✓ ✓ activating concentration <1 μM); P2X receptors 2 ([5]; Table 9, agonists): ✓ ✓ (✓ ✓ activating concentration 1-10 μM); P2X receptors 3 ([6]; Table 9, agonists): ✓ (✓ activating concentration >10 μM); P2X receptors 4 ([3]; Table 9, agonists): ✓ ✓ ✓ (✓ ✓ ✓ activating concentration <1 μM); P2X receptors 7 ([7]; Table 8, agonists): ++ (++: activating concentration 1~10 μM); P2X receptors 7 ([7]; Table 9, agonists): ✓ ✓ ✓ (✓ ✓ ✓ activating concentration <1 μM)"
"Cc1ccc(C(=O)Nc2ccc(S(=O)(=O)O)c3cc(S(=O)(=O)O)cc(S(=O)(=O)O)c23)cc1NC(=O)c1cccc(NC(=O)Nc2cccc(C(=O)Nc3cc(C(=O)Nc4ccc(S(=O)(=O)O)c5cc(S(=O)(=O)O)cc(S(=O)(=O)O)c45)ccc3C)c2)c1 [suramin, Suramin]",,,,,,,,,"viral load compared with control group ([9]; rhesus monkeys): significantly lower; blood viral load of drug treatment group (average) ([9]; 4th, 7th and 13th days after viral challenge, control peak 1-1.5×10^3 copies/ml): 1.5×10^1 copies/ml; body temperature after infection ([9]; control group showed a rise 1 day after infection): essentially maintained body temperatures within normal range"
COc1cc(Cc2cnc(N)nc2N)c(C(C)C)cc1OC [RO-3],,NO,,,,,,,"P2X receptors 3 ([6]; Table 9, antagonists): ✓ ✓ (✓ ✓ activating concentration 10 nM-300 nM); Heteromultimer [10]: ✓ P2X2/3 (✓ activating concentration >300 nM)"
"O=c1ccn([C@@H]2O[C@H](COP(=O)(O)OP(=O)(O)OP(=O)(O)O)[C@@H](O)[C@H]2O)c(=O)[nH]1 [UTP, uridine triphosphate]",−,NO,−,−,−,−,+ (+: activating concentration >10 μM),✓ (✓ activating concentration >10 μM),
